Data published in publication PMC10704561, “Multi-Photon-Sensitive Chromophore for the Photorelease of Biologically Active Phenols” (ACS Chemical Neuroscience, 2023).
Values after ≈ are worked out from the molar mass of the structure shown. Where two headings read alike, the source gives them in different places.

How the values were obtained:
TRPV1 channels = molecular target: T1, TRPV1 channels (Homo sapiens, UniProt Q8NER1); test: TRPV1 activation on HEK 293 cells, Fluo-4 calcium imaging; assay type: cell-based
T1 construct: expressed in transfected cells
T1 sequence (Q8NER1 whole entry): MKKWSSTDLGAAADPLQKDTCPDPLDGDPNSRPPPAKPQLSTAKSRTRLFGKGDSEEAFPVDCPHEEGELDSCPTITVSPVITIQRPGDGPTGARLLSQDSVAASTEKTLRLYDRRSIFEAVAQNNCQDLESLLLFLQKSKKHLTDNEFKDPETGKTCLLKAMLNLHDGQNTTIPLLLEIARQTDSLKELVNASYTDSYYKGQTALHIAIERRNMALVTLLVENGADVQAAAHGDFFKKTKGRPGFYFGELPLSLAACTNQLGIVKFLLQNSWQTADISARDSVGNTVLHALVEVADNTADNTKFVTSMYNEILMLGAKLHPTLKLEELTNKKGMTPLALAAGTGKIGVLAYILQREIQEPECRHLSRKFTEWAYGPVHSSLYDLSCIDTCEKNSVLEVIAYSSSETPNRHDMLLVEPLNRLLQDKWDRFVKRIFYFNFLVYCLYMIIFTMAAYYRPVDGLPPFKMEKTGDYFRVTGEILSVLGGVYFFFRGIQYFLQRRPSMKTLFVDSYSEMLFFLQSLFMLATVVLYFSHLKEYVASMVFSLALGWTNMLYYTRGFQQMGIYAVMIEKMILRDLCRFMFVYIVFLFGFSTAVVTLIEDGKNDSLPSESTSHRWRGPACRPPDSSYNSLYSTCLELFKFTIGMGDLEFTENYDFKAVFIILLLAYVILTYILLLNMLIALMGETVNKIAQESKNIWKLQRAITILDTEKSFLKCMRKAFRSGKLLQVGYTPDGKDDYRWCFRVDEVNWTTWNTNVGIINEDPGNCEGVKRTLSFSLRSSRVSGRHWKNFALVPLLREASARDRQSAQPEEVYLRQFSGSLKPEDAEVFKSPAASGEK
Method: HCT 116 cells were grown in Dulbecco’s […] medium (DMEM) supplemented with 10% fetal bovine serum (FBS), 1% nonessential amino acids (NEAA), and maintained at 37 °C and 5% CO2. HEK 293 cells stably expressing TRPV1 channels were grown as previously described.[62]
HEK 293 cells (stably expressing TRPV1 channels) were plated on a 35 mm glass-bottom dish (previously coated with poly-D-Lysine) a day before the experiment. A mixture of pluronic F-127 (Molecular Probes) and Fluo-4 AM (50 μg, Life Technologies) dissolved in dimethylsulfoxide (DMSO) (50 μL) was added to Hank’s balanced salt solution (HBSS) and sonicated for 5 min to prepare a solution containing a 0.02% final concentration of each. The solution was then loaded onto the cells growing in the 35 mm glass-bottom dish and incubated for 35–45 min in a humidified CO2 incubator (37 °C, 5% CO2). The cells were washed with HBSS (3 × 2 mL each) and subsequently maintained in HBSS during photoactivation experiments.
An Olympus FluoView FV1000MPE confocal microscope was employed to image and record cells plated onto 35 mm glass-bottom 4-well plates. A 488 nm ion laser excited the dopamine and serotonin sensors dLight 1.2 and GRAB5-HT, respectively, and Fluo-4 calcium dye. FluoView 10-ASW version 4.0 (Olympus), ImageJ-Fiji, and DeltaGraph (Red Rock Software) were used for capturing, extracting, and processing the collected data. Photoactivation was conducted with 405 nm (100% laser power, 1PE) or 720 nm (10% laser power, 24 mW, 2PE) light for MeO-CyHQ-O-DA and MeO-CyHQ-O-5HT or 740 nm (20% laser power, 15 mW light) for MeO-CyHQ-O-VNA and MeO-CyHQ-O-EG. Images were captured by using a 60× immersion lens.
Solutions of MeO-CyHQ-O-VNA or MeO-CyHQ-O-EG were added to HEK 293 cells stably expressing TRPV1 channels and loaded with Fluo-4 in a 35 mm glass-bottom dish. An area near a cell was irradiated with a single short pulse of 405 nm laser light while imaging with the 488 nm laser. Similarly, VNA and eugenol were released through 2PE using 740 nm light.

[1] = UV-vis spectra and molar extinction coefficient in KMOPS buffer; assay type: physicochemical; settings: 0.1 mM in KMOPS buffer, pH 7.2 (3d, 6c: 10 or 20% CH3CN added)
Method: A 100 μM solution of each protected phenol was prepared in KMOPS buffer (20% CH3CN was used as a cosolvent for compounds 3d and 6c). The UV–vis spectra of these solutions were recorded at between 250 and 500 nm. All of the measurements were repeated in triplicate, and the absorbance values were averaged. The Beer–Lambert law, ε = A(cl)^−1, was used for the calculation of ε values at λ = 365 nm, where A is the absorbance value measured at 365 nm, c is the concentration of the sample, and l is the cuvette length (1 cm). See the Supporting Information for the spectra.

[2] = One-photon excitation (1PE) photolysis with 365 nm LED, HPLC quantification; assay type: physicochemical; settings: for t90% (time required to consume 90% of the starting material): 1PE 365 nm LED, lamp intensity differs per compound (Table S1)
Method: A 0.1 mM solution (3 mL) of each protected phenol in KMOPS buffer (10 or 20% CH3CN was used as a cosolvent for 3d and 6c) was placed in a 3 mL quartz cuvette along with a stirring bar. The solution was irradiated with stirring using a 365 nm LED lamp (Cairn OptoLED Lite). At different time intervals, 80 μL aliquots of the solution were taken out and analyzed by uHPLC (Agilent 1290 Infinity series), monitoring the AUC at 320 nm (Supporting Information, HPLC Data). An external standard calibration method of quantification was used for the calibration of the samples. The experiments were repeated in sets of three. A gradient elution with a flux rate of 0.3 mL/min using a mobile phase comprising A = 0.1% trifluoroacetic acid in water and B = acetonitrile (starting from 5% B to 100% over 10 min and re-equilibrating to 5% B before the next run) was used for the separations. A comparison of the AUC with the calibration curves of the substrates (obtained from known concentration) determined the percentages of the remaining starting materials. The percentages of the remaining starting materials were plotted versus time. The time to 90% of decomposition of the substrate (t90% values) was obtained by fitting a single exponential decay curve to the data using DeltaGraph (Red Rock Software). The following equation was used to calculate the quantum yield (Φu) of each photolysis reaction:[42],[47],[56],[57] Φu = (I σ t90%)^−1, where I is the irradiation intensity (determined by potassium ferrioxalate actinometry and measured in Einstein cm^–2 s^–1),[58] σ is the decadic extinction coefficient (1000 × ε) at 365 nm, and t90% is the time required to consume 90% of the starting material. See Supporting Information Table S1 for the I, σ, and t90% data.

[3] = Spontaneous hydrolysis in the dark; assay type: physicochemical; settings: 0.1 mM in KMOPS pH 7.2, dark, 7 days
Method: A 0.1 mM solution of each compound was prepared in KMOPS buffer. For compounds 3d and 6c, 20% CH3CN was used as a cosolvent. The solutions were kept in the dark for 7 days, and the percentage of the starting materials was determined by periodic HPLC analysis (Supporting Information, HPLC Data).

[4] = Solubility in KMOPS buffer pH 7.2; assay type: physicochemical
Excerpt: The photochemical and photophysical properties were investigated in a simulated physiological buffer (KMOPS, pH 7.2) and compared with the literature data for CyHQ-O-DA (Table 1). […] For this derivative, 10% CH3CN in the buffer was used to ensure complete solubilization for the photochemistry experiments. The spontaneous hydrolysis in the dark was monitored over a period of 7 days and no significant hydrolysis was detected for any of the constructs. The molar absorptivity at the wavelength used for 1PE photolysis (ε365) ranged between 4800 and 5670 M^–1 cm^–1, in line with the values of most CyHQ-based PPGs.
The photochemical behavior of constructs 4–7c was investigated in KMOPS buffer at the concentration of 0.1 mM. Under these conditions, all compounds were soluble except for the VNA analogue 6c, which, because of the lipophilicity of the vanilloid, required 20% CH3CN for full solubilization. The stability toward hydrolysis in the dark was monitored over a week, and no significant decomposition was detected for any probe. All constructs were successfully photolyzed after light exposure, as shown in the time courses of the photolysis reactions (Figure 3). MeO-CyHQ constructs 4c, 6c, and 7c were photoactivated with excellent quantum efficiency and sensitivities, and good chemical yields were obtained by monitoring the appearance of the released bioeffector over the time course of the photoreaction (Table 1). […] We believe this effect is due to the presence of the thiophene ring, a well-known photoactive group,[51] which could act as an energy sink in the excited state and quench the photochemical reaction.

[5] = HEK 293 cells expressing TRPV1, exposure to 740 nm light, data not shown

SMILES	ε365 [1] [M^–1 cm^–1]	λmax [1] [nm]	t90% (time required to consume 90% of the starting material) [2] [s]	τd (time constant of spontaneous hydrolysis in buffer in the dark at room temperature) [3]	solubility ([4]; pH 7.2, aqueous buffer) [µM]	further results
CCCCCCCCC(=O)NCc1ccc(OCc2ccc3ccc(O)c(C#N)c3n2)c(OC)c1 [CyHQ-VNA, reference compound]	–	–	–	–	–	Fluo-4 calcium response after photoactivation (2PE) (TRPV1 channels; [5]): did not induce any response
C=CCc1ccc(OCc2cc(OC)c3ccc(O)c(C#N)c3n2)c(OC)c1 [7c, 2-((4-Allyl-2-methoxyphenoxy)methyl)-7-hydroxy-4-methoxyquinoline-8-carbonitrile]	7540	351	19.5	nh (No hydrolysis (<5% detected after 7 days))	> 100	Fluo-4 calcium response after photoactivation (1PE) (TRPV1 channels; HEK 293 cells expressing TRPV1, 5 μM, 500 ms pulse of 405 nm light): EG was released; Fluo-4 calcium response after photoactivation (2PE) (TRPV1 channels; HEK 293 cells expressing TRPV1, 5 μM, 500 ms pulse of 740 nm light): sufficient response
Cc1cc(COc2cc(CCN)ccc2O)nc2c(C#N)c(O)ccc12.O=C(O)C(F)(F)F [3a, 2-(3-((8-Cyano-7-hydroxy-4-methylquinolin-2-yl)methoxy)-4-hydroxyphenyl)ethan-1-aminium 2,2,2-trifluoroacetate]	5000	365	28.0	nh (No hydrolysis (<5% detected after 7 days))	–	solubility ([4]; aqueous buffer, KMOPS buffer, pH 7.2, read-out: solubility): > 100 µM
N#Cc1c(O)ccc2c(N3CCOCC3)cc(COc3cc(CCN)ccc3O)nc12.O=C(O)C(F)(F)F [3b, 2-(3-((8-Cyano-7-hydroxy-4-morpholinoquinolin-2-yl)methoxy)-4-hydroxyphenyl)ethan-1-aminium 2,2,2-trifluoroacetate]	4900	358	23.2	nh (No hydrolysis (<5% detected after 7 days))	> 100	irradiation time to complete the 1PE photolysis reaction ([2]; 365 nm): less than 1 min
Cc1ccc(-c2cc(COc3cc(CCN)ccc3O)nc3c(C#N)c(O)ccc23)cc1.O=C(O)C(F)(F)F [3d, 2-(3-((8-Cyano-7-hydroxy-4-(p-tolyl)quinolin-2-yl)methoxy)-4-hydroxyphenyl)ethan-1-aminium 2,2,2-trifluoroacetate]	4800	372	76.7	nh (No hydrolysis (<5% detected after 7 days))	85	solubility ([4]; pH 7.2): slightly lower solubility
CCCCCCCCC(=O)NCc1ccc(O)c(OC)c1 [VNA, N-vanillyl-nonanoylamide, reference compound]	–	–	–	–	–	relative potency as activator of TRPV1 channels (VNA versus EG) (TRPV1 channels; inferred from concentration and pulse duration needed for release, 405 nm): more potent activator of TRPV1 channels
COc1cc(-c2cc(COc3cc(CCN)ccc3O)nc3c(C#N)c(O)ccc23)cc(OC)c1OC.O=C(O)C(F)(F)F [3e, 2-(3-((8-Cyano-7-hydroxy-4-(3,4,5-trimethoxyphenyl)quinolin-2-yl)methoxy)-4-hydroxyphenyl)ethan-1-aminium 2,2,2-trifluoroacetate]	5210	372	188.7	nh (No hydrolysis (<5% detected after 7 days))	> 100	–
CCCN(CCc1cccs1)[C@@H]1CCc2c(cccc2OCc2cc(OC)c3ccc(O)c(C#N)c3n2)C1 [5c, (R)-7-Hydroxy-4-methoxy-2-(((6-(propyl(2-(thiophen-2-yl)ethyl)amino)-5,6,7,8-tetrahydronaphthalen-1-yl)oxy)methyl)quinoline-8-carbonitrile]	2300	343	143.9	nh (No hydrolysis (<5% detected after 7 days))	> 100	–
C=CCc1ccc(OCc2ccc3ccc(O)c(C#N)c3n2)c(OC)c1 [CyHQ-EG, reference compound]	–	–	–	–	–	Fluo-4 calcium response after photoactivation (2PE) (TRPV1 channels; [5]): did not induce any response
CCCCCCCCC(=O)NCc1ccc(OCc2cc(OC)c3ccc(O)c(C#N)c3n2)c(OC)c1 [6c, N-(4-((8-Cyano-7-hydroxy-4-methoxyquinolin-2-yl)methoxy)-3-methoxybenzyl)nonanamide]	3375	341	23.1	nh (No hydrolysis (<5% detected after 7 days))	77 (≈ 38.9 µg/mL)	Fluo-4 calcium response after photoactivation (1PE) (TRPV1 channels; HEK 293 cells expressing TRPV1, 2.5 μM, 50 ms pulse of 405 nm light): robust response; Fluo-4 calcium response after photoactivation (2PE) (TRPV1 channels; HEK 293 cells expressing TRPV1, 5 μM, 250 ms pulse of 740 nm light): robust response
